According to patent publication US20250230193A1, “CYCLIC COMPOUND HAVING SELECTIVE KRAS INHIBITORY EFFECT ON HRAS AND NRAS” (CHUGAI SEIYAKU KABUSHIKI KAISHA, priority 2022, published 2025):

How the values were obtained:
[1] = target: GDP-bound NRAS wild-type protein (Homo sapiens, UniProt P01111); test: Binding to NRAS by surface plasmon resonance (SPR), Single Cycle Kinetics; details: SPR; KD ratio class
[2] = target: GDP-bound HRAS wild-type protein (Homo sapiens, UniProt P01112); test: Binding to HRAS by surface plasmon resonance (SPR), Single Cycle Kinetics; details: SPR; KD ratio class
Sequence of GDP-bound HRAS wild-type protein (P01112 whole entry): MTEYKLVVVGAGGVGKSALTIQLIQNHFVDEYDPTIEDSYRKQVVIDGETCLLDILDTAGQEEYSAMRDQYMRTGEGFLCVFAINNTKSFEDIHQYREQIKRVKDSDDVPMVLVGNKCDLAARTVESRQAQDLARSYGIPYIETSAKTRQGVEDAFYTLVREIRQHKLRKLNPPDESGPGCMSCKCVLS

Sequence of GDP-bound NRAS wild-type protein (P01111 whole entry): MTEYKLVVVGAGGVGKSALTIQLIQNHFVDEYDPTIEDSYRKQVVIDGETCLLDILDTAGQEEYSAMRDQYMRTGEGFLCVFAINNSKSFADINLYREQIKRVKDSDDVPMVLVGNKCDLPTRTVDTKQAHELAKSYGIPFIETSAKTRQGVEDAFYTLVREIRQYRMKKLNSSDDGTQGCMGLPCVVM

For `CCC[C@H]1C(=O)N[C@@H]([C@@H](C)CC)C(=O)N(C)CC(=O)N(C)[C@H]2C/C=C\CCN(C2=O)[C@@H](Cc2ccc(C(F)(F)F)cc2)C(=O)N(C)CC(=O)N[C@@H](CCc2cc(F)c(C(F)(F)F)c(F)c2)C(=O)N2C[C@H](OCC)C[C@H]2C(=O)NC2(CCC2)C(=O)N(C)[C@@H](C2CCCC2)C(=O)N(C)[C@H](C(=O)N(C)CCOC)CC(=O)N1C` [PP1331], the “NRAS/KRAS (ratio of KD value for GDP-bound NRAS wild-type protein to KD value for KRAS)” value [1] was “A (a compound having 10 or more and less than 20 is denoted as A)” and the “HRAS/KRAS (ratio of KD value for GDP-bound HRAS wild-type protein to KD value for KRAS)” value [2] was “A (a compound having 10 or more and less than 20 is denoted as A)”.
With `CCO[C@@H]1C[C@H]2C(=O)NC3(CCC3)C(=O)N(C)[C@@H](C3CCCC3)C(=O)N(C)[C@H](C(=O)N(C)C)CC(=O)N(C)[C@@H](CC)C(=O)N[C@@H]([C@@H](C)CC)C(=O)N(C)CC(=O)N(C)[C@H]3CC/C=C(/C)CN(C3=O)[C@@H](Cc3ccc(C(F)(F)F)cc3)C(=O)N(C)CC(=O)N[C@@H](CCc3cc(F)c(C(F)(F)F)c(F)c3)C(=O)N2C1` [PP1334] the “NRAS/KRAS (ratio of KD value for GDP-bound NRAS wild-type protein to KD value for KRAS)” value [1] was “B (a compound having 3 or more and less than 10 is denoted as B)” and the “HRAS/KRAS (ratio of KD value for GDP-bound HRAS wild-type protein to KD value for KRAS)” value [2] was “B (a compound having 3 or more and less than 10 is denoted as B)”.
`CCO[C@@H]1C[C@H]2C(=O)NC3(CCC3)C(=O)N(C)[C@@H](C3CCCC3)C(=O)N(C)[C@H](C(=O)N3CCOCC3)CC(=O)N(C)[C@@H](CC)C(=O)N[C@@H]([C@@H](C)CC)C(=O)N(C)CC(=O)N(C)[C@H]3CC/C=C(/C)CN(C3=O)[C@@H](Cc3ccc(C(F)(F)F)cc3)C(=O)N(C)CC(=O)N[C@@H](CCc3cc(F)c(C(F)(F)F)c(F)c3)C(=O)N2C1` [PP1335] was tested, and the “NRAS/KRAS (ratio of KD value for GDP-bound NRAS wild-type protein to KD value for KRAS)” value [1] was “B (a compound having 3 or more and less than 10 is denoted as B)” and the “HRAS/KRAS (ratio of KD value for GDP-bound HRAS wild-type protein to KD value for KRAS)” value [2] was “B (a compound having 3 or more and less than 10 is denoted as B)”.
For `CCCN(C)C(=O)[C@@H]1CC(=O)N(C)[C@@H](CC(C)C)C(=O)N[C@@H]([C@@H](C)CC)C(=O)N(C)CC(=O)N(C)[C@H]2C/C=C\CCN(C2=O)[C@@H](Cc2ccc(C(F)(F)F)cc2)C(=O)N(C)CC(=O)N[C@@H](CCc2cc(F)c(C(F)(F)F)c(F)c2)C(=O)N2C[C@H](OCC)C[C@H]2C(=O)NC2(CCC2)C(=O)N(C)[C@@H](C2CCCC2)C(=O)N1C` [PP1387], the “NRAS/KRAS (ratio of KD value for GDP-bound NRAS wild-type protein to KD value for KRAS)” value [1] was “A (a compound having 10 or more and less than 20 is denoted as A)” and the “HRAS/KRAS (ratio of KD value for GDP-bound HRAS wild-type protein to KD value for KRAS)” value [2] was “B (a compound having 3 or more and less than 10 is denoted as B)”.
For `CCCN(C)C(=O)[C@@H]1CC(=O)N(C)[C@@H](CC2CC2)C(=O)N[C@@H]([C@@H](C)CC)C(=O)N(C)CC(=O)N(C)[C@H]2C/C=C\CCN(C2=O)[C@@H](Cc2ccc(C(F)(F)F)cc2)C(=O)N(C)CC(=O)N[C@@H](CCc2cc(F)c(C(F)(F)F)c(F)c2)C(=O)N2C[C@H](OCC)C[C@H]2C(=O)NC2(CCC2)C(=O)N(C)[C@@H](C2CCCC2)C(=O)N1C` [PP1388], the “NRAS/KRAS (ratio of KD value for GDP-bound NRAS wild-type protein to KD value for KRAS)” value [1] was “A (a compound having 10 or more and less than 20 is denoted as A)” and the “HRAS/KRAS (ratio of KD value for GDP-bound HRAS wild-type protein to KD value for KRAS)” value [2] was “B (a compound having 3 or more and less than 10 is denoted as B)”.
`CCC[C@H]1C(=O)N[C@@H]([C@@H](C)CC)C(=O)N(C)CC(=O)N(C)[C@H]2C/C=C\CCN(C2=O)[C@@H](Cc2ccc(C(F)(F)F)cc2)C(=O)N(C)CC(=O)N[C@@H](CCc2cc(F)c(C(F)(F)F)c(F)c2)C(=O)N2C[C@H](OCC)C[C@H]2C(=O)NC2(CCC2)C(=O)N(C)[C@@H](C2CCCC2)C(=O)N(C)[C@H](C(=O)N(C)CCC)CC(=O)N1C` [PP1389] was tested, and the “NRAS/KRAS (ratio of KD value for GDP-bound NRAS wild-type protein to KD value for KRAS)” value [1] was “AA (a compound having 20 or more is denoted as AA)” and the “HRAS/KRAS (ratio of KD value for GDP-bound HRAS wild-type protein to KD value for KRAS)” value [2] was “A (a compound having 10 or more and less than 20 is denoted as A)”.
For `CC[C@H](C)[C@@H]1NC(=O)[C@H](CC2CC2)N(C)C(=O)C[C@@H](C(=O)N(C)C)N(C)C(=O)[C@H](C2CCCC2)N(C)C(=O)C2(CCC2)NC(=O)[C@@H]2[C@@H](OCC(F)F)CCN2C(=O)[C@H](CCc2cc(F)c(C(F)(F)F)c(F)c2)NC(=O)CN(C)C(=O)[C@H](Cc2ccc(C(F)(F)F)cc2)N2CC/C=C\C[C@@H](C2=O)N(C)C(=O)CN(C)C1=O` [PP1533], the “NRAS/KRAS (ratio of KD value for GDP-bound NRAS wild-type protein to KD value for KRAS)” value [1] was “AA (a compound having 20 or more is denoted as AA)” and the “HRAS/KRAS (ratio of KD value for GDP-bound HRAS wild-type protein to KD value for KRAS)” value [2] was “A (a compound having 10 or more and less than 20 is denoted as A)”.
In the case of `CC[C@H](C)[C@@H]1NC(=O)[C@H](CC(C)C)N(C)C(=O)C[C@@H](C(=O)N(C)C)N(C)C(=O)[C@H](C2CCCC2)N(C)C(=O)C2(CCC2)NC(=O)[C@@H]2[C@@H](OCC(F)F)CCN2C(=O)[C@H](CCc2cc(F)c(C(F)(F)F)c(F)c2)NC(=O)CN(C)C(=O)[C@H](Cc2ccc(C(F)(F)F)cc2)N2CC/C=C\C[C@@H](C2=O)N(C)C(=O)CN(C)C1=O` [PP1534], the “NRAS/KRAS (ratio of KD value for GDP-bound NRAS wild-type protein to KD value for KRAS)” value [1] is reported as “AA (a compound having 20 or more is denoted as AA)” and the “HRAS/KRAS (ratio of KD value for GDP-bound HRAS wild-type protein to KD value for KRAS)” value [2] is reported as “A (a compound having 10 or more and less than 20 is denoted as A)”.
For `CC[C@H](C)[C@@H]1NC(=O)[C@H](CC2CC2)N(C)C(=O)C[C@@H](C(=O)N(C)CC)N(C)C(=O)[C@H](C2CCCC2)N(C)C(=O)C2(CCC2)NC(=O)[C@@H]2C[C@H](C)CN2C(=O)[C@H](CCc2cc(F)c(C(F)(F)F)c(F)c2)NC(=O)CN(C)C(=O)[C@H](Cc2ccc(C(F)(F)F)cc2)N2CC/C=C\C[C@@H](C2=O)N(C)C(=O)CN(C)C1=O` [PP1537], the “NRAS/KRAS (ratio of KD value for GDP-bound NRAS wild-type protein to KD value for KRAS)” value [1] was “AA (a compound having 20 or more is denoted as AA)” and the “HRAS/KRAS (ratio of KD value for GDP-bound HRAS wild-type protein to KD value for KRAS)” value [2] was “A (a compound having 10 or more and less than 20 is denoted as A)”.
In the case of `CC[C@H](C)[C@@H]1NC(=O)[C@H](CC2CC2)N(C)C(=O)C[C@@H](C(=O)N(C)CC)N(C)C(=O)[C@H](C2CCCC2)N(C)C(=O)C2(CCC2)NC(=O)[C@@H]2CC(F)(F)CN2C(=O)[C@H](CCc2cc(F)c(C(F)(F)F)c(F)c2)NC(=O)CN(C)C(=O)[C@H](Cc2ccc(C(F)(F)F)cc2)N2CC/C=C\C[C@@H](C2=O)N(C)C(=O)CN(C)C1=O` [PP1538], the “NRAS/KRAS (ratio of KD value for GDP-bound NRAS wild-type protein to KD value for KRAS)” value [1] is reported as “A (a compound having 10 or more and less than 20 is denoted as A)” and the “HRAS/KRAS (ratio of KD value for GDP-bound HRAS wild-type protein to KD value for KRAS)” value [2] is reported as “B (a compound having 3 or more and less than 10 is denoted as B)”.
For `CCO[C@@H]1C[C@H]2C(=O)NC3(CCC3)C(=O)N(C)[C@@H](C3CCCC3)C(=O)N(C)[C@H](C(=O)N(C)CC)CC(=O)N(C)[C@@H](CC)C(=O)N[C@@H]([C@@H](C)CC)C(=O)N(C)CC(=O)N(C)[C@H]3C/C=C\CCN(C3=O)[C@@H](CC3CCCCC3)C(=O)N(C)CC(=O)N[C@@H](CCc3cc(F)c(C(F)(F)F)c(F)c3)C(=O)N2C1` [PP1552], the “NRAS/KRAS (ratio of KD value for GDP-bound NRAS wild-type protein to KD value for KRAS)” value [1] was “A (a compound having 10 or more and less than 20 is denoted as A)” and the “HRAS/KRAS (ratio of KD value for GDP-bound HRAS wild-type protein to KD value for KRAS)” value [2] was “A (a compound having 10 or more and less than 20 is denoted as A)”.
`CCO[C@@H]1C[C@H]2C(=O)NC3(CCC3)C(=O)N(C)[C@@H](C3CCCC3)C(=O)N(C)[C@H](C(=O)N(C)CC)CC(=O)N(C)[C@@H](CC)C(=O)N[C@@H]([C@@H](C)CC)C(=O)N(C)CC(=O)N(C)[C@H]3C/C=C\CCN(C3=O)[C@@H](CC3CCC(F)(F)CC3)C(=O)N(C)CC(=O)N[C@@H](CCc3cc(F)c(C(F)(F)F)c(F)c3)C(=O)N2C1` [PP1553] was tested, and the “NRAS/KRAS (ratio of KD value for GDP-bound NRAS wild-type protein to KD value for KRAS)” value [1] was “A (a compound having 10 or more and less than 20 is denoted as A)” and the “HRAS/KRAS (ratio of KD value for GDP-bound HRAS wild-type protein to KD value for KRAS)” value [2] was “A (a compound having 10 or more and less than 20 is denoted as A)”.
For `C=CCCCCN(C)C(=O)[C@@H]1CC(=O)N(C)[C@@H](CC2CC2)C(=O)N[C@@H](CC=C)C(=O)N(C)CC(=O)N(C)[C@H]2C/C=C\CCN(C2=O)[C@@H](Cc2ccc(C(F)(F)F)cc2)C(=O)N(C)CC(=O)N[C@@H](CCc2cc(F)c(C(F)(F)F)c(F)c2)C(=O)N2C[C@H](OCC)C[C@H]2C(=O)NC2(CCC2)C(=O)N(C)[C@@H](C2CCCC2)C(=O)N1C` [PP1554], the “NRAS/KRAS (ratio of KD value for GDP-bound NRAS wild-type protein to KD value for KRAS)” value [1] was “A (a compound having 10 or more and less than 20 is denoted as A)” and the “HRAS/KRAS (ratio of KD value for GDP-bound HRAS wild-type protein to KD value for KRAS)” value [2] was “A (a compound having 10 or more and less than 20 is denoted as A)”.
For `C=CC[C@@H]1NC(=O)[C@H](CC2CC2)N(C)C(=O)C[C@@H](C(=O)N(C)CC=C)N(C)C(=O)[C@H](C2CCCC2)N(C)C(=O)C2(CCC2)NC(=O)[C@@H]2C[C@@H](OCC)CN2C(=O)[C@H](CCc2cc(F)c(C(F)(F)F)c(F)c2)NC(=O)CN(C)C(=O)[C@H](Cc2ccc(C(F)(F)F)cc2)N2CC/C=C\C[C@@H](C2=O)N(C)C(=O)CN(C)C1=O` [PP1557], the “NRAS/KRAS (ratio of KD value for GDP-bound NRAS wild-type protein to KD value for KRAS)” value [1] was “A (a compound having 10 or more and less than 20 is denoted as A)” and the “HRAS/KRAS (ratio of KD value for GDP-bound HRAS wild-type protein to KD value for KRAS)” value [2] was “A (a compound having 10 or more and less than 20 is denoted as A)”.
